From patent publication US9845330B2, “6-nitro-2,3-dihydroimidazo[2,1-b]oxazoles and a process for the preparation thereof” (priority 2013, dated 2017)
≈ marks a conversion by molar mass, not a printed value.

Columns and labels:
[1] = test system: M. tuberculosis H37Rv (ATCC 27294); assay: MIC by broth dilution method, M. tuberculosis H37Rv; assay type: cell-based; settings: Mycobacterium tuberculosis, 504 h, broth dilution, 3 weeks; read-out: MIC M. tb H37Rv
[2] = test system: macrophage J774 cells line; assay: Cytotoxicity assay (MTT) in macrophage J774 cells; assay type: cell-based; settings: J774 cells, 24 hrs, MTT
Procedure: The study was carried out using macrophage J774 cells line (ATCC-USA). Cells were grown in Rosewell Park Memorial Institute Medium (RPMI) containing 10% fetal calf serum (FCS) and supplemented with 75 mg/liter penicillin, 100 mg/liter streptomycin, 110 mg/liter Sodium pyruvate, 2.38 gm/liter HEPES, 0.05 mM 2 β-mercaptoethanol, and 2 gm/liter NaHCO3, in a humidified atmosphere in 5% CO2 at 37° C., and were sub-cultured at 1:4 ratio once a week.
Cells were plated at a density of 3×10^4 cells/cm^2 and maintained in culture medium for 12 hours. Cells were seeded onto 96-well flat bottom plates and FCS was reduced to 5% for the experiment. Stock solutions of compounds IA1 to IIC10 were prepared fresh to avoid oxidation. Cells were incubated with the compounds (40 μg/ml) for 24 hrs.
After the completion of incubation, the medium was removed and cell viability was evaluated by assaying for the ability of functional mitochondria to catalyze the reduction of 3-(4,5-dimethylthiazol-2-yl)-2,5-diphenyltetrazolium bromide (MTT) to form formazan salt by mitochondrial dehydrogenases, and determined by Elisa reader at 450 nm (Multiskan Spectrum; Thermo Electron Corporation, USA). Percentage cytotoxicity was calculated with respect to the untreated cells.

Compound	MIC [1] [µg/mL]	Cytotoxicity [2] [µg/mL]
C[C@]1(COc2ccc(-c3cc(-c4cccc(F)c4)on3)cc2)Cn2cc([N+](=O)[O-])nc2O1 [IC8, (R)-2-{4-[5-(3-fluorophenyl)isoxazol-3-yl]phenoxymethyl}-2,3-dihydro-2-methyl-6-nitroimidazo[2,1-b]oxazole]	2 (≈ 4.58 µM)	>40
C[C@]1(COc2ccc(-c3cc(-c4ccccn4)on3)cc2)Cn2cc([N+](=O)[O-])nc2O1 [IC9, (R)-2-{4-[5-(pyridin-2-yl)isoxazol-3-yl]phenoxymethyl}-2,3-dihydro-2-methyl-6-nitroimidazo[2,1-b]oxazole]	2 (≈ 4.77 µM)	>40
CCc1ccc(OCc2cc(-c3ccc(OC[C@@]4(C)Cn5cc([N+](=O)[O-])nc5O4)cc3)no2)cc1 [IC19, (R)-2-{4-[5-(4-ethylphenoxymethyl)isoxazol-3-yl]phenoxymethyl}-2,3-dihydro-2-methyl-6-nitroimidazo[2,1-b]oxazole]	2 (≈ 4.2 µM)	>40
CCC(C)c1ccc(OCc2cc(-c3ccc(OC[C@@]4(C)Cn5cc([N+](=O)[O-])nc5O4)cc3)no2)cc1 (stereo partly drawn) [IC20, (R)-2-{4-[5-(4-sec-butylphenoxymethyl)isoxazol-3-yl]phenoxymethyl}-2,3-dihydro-2-methyl-6-nitroimidazo[2,1-b]oxazole]	2 (≈ 3.96 µM)	>40
C[C@]1(COc2ccc(-c3cc(COc4ccccc4)on3)cc2)Cn2cc([N+](=O)[O-])nc2O1 [IC21, (R)-2-{4-[5-(phenoxymethyl)isoxazol-3-yl]phenoxymethyl}-2,3-dihydro-2-methyl-6-nitroimidazo[2,1-b]oxazole]	4 (≈ 8.92 µM)	>40
COc1ccc(NC(=S)Nc2ccc(OC[C@@]3(C)Cn4cc([N+](=O)[O-])nc4O3)cc2)cc1 [IIA7, (R)-1-(4-methoxyphenyl)-3-{4-(2-methyl-6-nitro-2,3-dihydroimidazo[2,1-b]oxazol-2-yl)methoxyphenyl}thiourea]	2 (≈ 4.39 µM)	>40
C[C@]1(COc2ccc(NC(=S)Nc3ccc(OC(F)(F)F)cc3)cc2)Cn2cc([N+](=O)[O-])nc2O1 [IIA8, (R)-1-(4-trifluoromethoxyphenyl)-3-{4-(2-methyl-6-nitro-2,3-dihydroimidazo[2,1-b]oxazol-2-yl)methoxyphenyl}thiourea]	2 (≈ 3.93 µM)	>40
C[C@]1(COc2ccc(NC(=S)Nc3ccc(F)cc3)cc2)Cn2cc([N+](=O)[O-])nc2O1 [IIA9, (R)-1-(4-fluorophenyl)-3-{4-(2-methyl-6-nitro-2,3-dihydroimidazo[2,1-b]oxazol-2-yl)methoxyphenyl}thiourea]	4 (≈ 9.02 µM)	>40
C[C@]1(COc2ccc(NC(=S)Nc3ccc(C(F)(F)F)cc3)cc2)Cn2cc([N+](=O)[O-])nc2O1 [IIA10, (R)-1-(4-trifluoromethylphenyl)-3-{4-(2-methyl-6-nitro-2,3-dihydroimidazo[2,1-b]oxazol-2-yl)methoxyphenyl}thiourea]	4 (≈ 8.11 µM)	>40
Cc1ccc(NS(=O)(=O)c2ccc(OC[C@@]3(C)Cn4cc([N+](=O)[O-])nc4O3)cc2)cc1 [IIB1, (R)-4-{(2-methyl-6-nitro-2,3-dihydroimidazo[2,1-b]oxazol-2-yl)methoxy}-N-(p-tolyl)benzenesulfonamide]	2 (≈ 4.5 µM)	>40
C[C@]1(COc2ccc(S(=O)(=O)Nc3ccc(OC(F)(F)F)cc3)cc2)Cn2cc([N+](=O)[O-])nc2O1 [IIB2, (R)-4-{(2-methyl-6-nitro-2,3-dihydroimidazo[2,1-b]oxazol-2-yl)methoxy}-N-(4 trifluoromethoxyphenyl)benzenesulfonamide]	2 (≈ 3.89 µM)	>40
C[C@]1(COc2ccc(S(=O)(=O)Nc3ccc(C(F)(F)F)cc3)cc2)Cn2cc([N+](=O)[O-])nc2O1 [IIB3, (R)-4-{(2-methyl-6-nitro-2,3-dihydroimidazo[2,1-b]oxazol-2-yl)methoxy}-N-(4 trifluoromethylphenyl)benzenesulfonamide]	2 (≈ 4.01 µM)	>40
